Legend:
RAW264.7 cells = assay: Osteoclastogenesis: TRAP-positive multinucleated cells from RANKL-stimulated RAW264.7 cells; type: cell-based, murine; settings: RANKL 30 ng/ml, four days of culture, vs untreated cells, listed as Adenosine A2A receptor antagonist
Method: Osteoclast formation was evaluated by quantification of TRAP-positive MNCs as described previously. TRAP is preferentially expressed at high levels in osteoclasts and is considered, especially in the mouse, to be an osteoclast marker. After incubation, cells on wells were washed in PBS, fixed in 4% paraformaldehyde for 10 min, and stained for acid phosphatase in the presence of 0.3 M sodium tartrate (Sigma-Aldrich). The substrate used was napthol AS-BI phosphate (Sigma-Aldrich). Only those cells that were strongly TRAP-positive (dark red) and have more than 3 nuclei were counted by light microscopy. To evaluate the size of the Osteoclast over time, we counted the number of nuclei per OCL in 50 OCLs for each of the three wells(n=150). The mean number of nuclei per OCL (MNN) and SE were calculated for each time-point, and ANOVA analysis was performed to determine statistically significant differences. RAW264.7 is a macrophage cell line having the capacity to form osteoclast-like cells. Because the RAW264.7 cells provide an excellent in vitro model for dissecting the cellular and molecular regulation of osteoclast differentiation and activation, we studied the effect of adenosine A2A receptors on the osteoclasts generated from the RAW264.7 cells. Cell Culture and Osteoclastogenesis. […]

TRAF6 protein = assay: Western blotting of TRAF6 protein in RAW264.7 cells; type: cell-based, murine; settings: 1 μg/ml for 4 days, then RANKL 30 ng/ml, β-actin as comparison
Method: Western blotting. Osteoclast precursors were preincubated with or without CGS21680 (1 μg/ml) or ZM241385 (1 μg/ml) for 4 days and then stimulated with RANKL (30 ng/ml) for the indicated period. For isolation of total proteins, cells were washed twice with PBS and lysed in RIPA buffer. Proteins were estimated and boiled with sample buffer for 5 min and were subjected to electrophoresis on 10% SDS-PAGE. Proteins were transferred onto a nitrocellulose membrane. Membranes were blocked for 2 hours in blocking solution (5% nonfat dry milk in TBS containing 0.1% Tween 20) and exposed to primary Abs overnight at 4° C. After washing, the membranes were incubated for 1 hour at room temperature with secondary Ab, and the proteins were detected using ECL reagents according to the manufacturer's instructions. To reprobe the membranes with other Abs, the membranes were stripped with 100 mM 2-ME, 2% SDS, and 62.5 mM Tris-HCl (pH 6.9) for 20 min at 50° C., followed by immunoblotting as described above.

SMILES | osteoclast formation (number of multinucleated TRAP+ osteoclasts) (RAW264.7 cells) | TRAF6 levels (TRAF6 protein)
Nc1nc(NCCc2ccc(O)cc2)nc2nc(-c3ccco3)nn12 [adenosine A2A receptor antagonist, ZM241385] | increased number | –
CCNC(=O)[C@H]1O[C@@H](n2cnc3c(N)nc(NCCc4ccc(CCC(=O)O)cc4)nc32)[C@H](O)[C@@H]1O [A2A receptor agonist, CGS 21680] | – | diminish
